Experimental data as given in US9624184B2, “Heterocyclic compound” (TAKEDA PHARMACEUTICAL COMPANY LIMITED, priority 2013, dated 2017).

Experiments:
human CH24H = biological target: T1, human CH24H (Homo sapiens, UniProt Q9Y6A2); assay: Measurement of CH24H inhibitory activity (24-HC produced from [14C] cholesterol by human CH24H lysate); assay type: biochemical; settings: 1 μM test compound, [14C] cholesterol 15 μM, 37° C. for 5 hr, read-out: Inhibitory Rate in 1 μM (%)
T1 construct: Using Full-Length Mammalian Gene Collection No. 4819975 (Invitrogen) as a template; made in house; host or cells: FreeStyle 293-F cells (transient transfection with pcDNA3.1(+)/hCH24H); cell lysate supernatant
Experimental: A plasmid DNA for expressing human CH24H in a FreeStyle 293 cell was produced as follows. Using Full-Length Mammalian Gene Collection No. 4819975 (Invitrogen) as a template, and the following two kinds of synthesized DNAs: 5′-[…]-3′ (SEQ ID NO: 1) and 5′-[…]-3′ (SEQ ID NO: 2), PCR was performed to amplify 91-1625 bp region of human CH24H (BC022539). The obtained fragment was cloned using TOPO TA Cloning Kit (Invitrogen). The obtained fragment was subcloned to pcDNA3.1(+) digested with BamHI and XhoI to give a plasmid DNA for human CH24H expression (pcDNA3.1(+)/hCH24H).
The expression of human CH24H was performed using FreeStyle 293 Expression System (Invitrogen). According to the manual attached to FreeStyle 293 Expression System and using the plasmid DNA for human CH24H expression (pcDNA3.1(+)/hCH24H) constructed in Experimental Example 1, a transient expression using FreeStyle 293-F cell was performed. After transfection, the cells were cultured at 37° C., 8% CO2 with shaking at 125 rpm for 2 days. The cells were collected by centrifugation, and suspended in a suspension buffer (100 mM potassium phosphate (pH 7.4), 0.1 mM EDTA, 1 mM DTT, 20% Glycerol). The suspended product was disrupted by a polytron homogenizer (manufactured by Kinematica), and centrifuged at 9000×g for 10 min, and the supernatant was collected. The collected supernatant was cryopreserved (−80° C.) as a human CH24H lysate standard product.
For the measurement of CH24H inhibitory activity, using the human CH24H lysate prepared in Experimental Example 2, the amount of 24-HC produced from cholesterol by catalytic activity of CH24H was measured in the presence of a test compound, and compared with that measured in the absence of the test compound. That is, a test compound solution at various concentrations was mixed with a reaction buffer (50 mM potassium phosphate containing 0.1% BSA and Complete, EDTA-free, pH 7.4) and human CH24H lysate. Then, [^14C] cholesterol (53 mCi/mmol specific activity, 15 μM) was added, and CH24H reaction was performed at 37° C. for 5 hr. After completion of the reaction, a quenching solution consisting of chloroform/methanol/distilled water (2:2:1 v/v) was added, and the resulting 24-HC was extracted by shaking. The extract was applied to silica gel thin layer chromatography (ethyl acetate:toluene=4:6), and the obtained ^14C-24HC fraction was measured with BAS2500 (Fujifilm Corporation).
The inhibitory rate (%) was calculated from the ratio of radioactivity in the presence of a test compound relative to the radioactivity in the absence of the test compound.

24-HC in the brain = assay: Quantification test of 24-HC in mouse brain after repeated oral administration; assay type: in vivo; settings: female C57BL/6N mice, brain 24-HC at 16 hours after the third administration, relative values with the control group as 100%; for Decreasing Rate in 10 mg/kg (%): 10 mg/kg orally once a day for 3 days; for Decreasing Rate in 30 mg/kg (%): 30 mg/kg orally once a day for 3 days
Experimental: Animals used were 6-week-old female C57BL/6N mice (3 mice/group). A test compound was suspended in a 0.5% aqueous methylcellulose [133-14255 WAKO] solution (1 mg/mL). The body weight of the mice was measured, and the solution was forcibly administered orally and repeatedly once a day for 3 days. At 16 hours after the third administration, half of the brain was harvested, and the amount of 24-HC was measured.
The wet weight of the brain was measured, and the brain was homogenized with 4-fold amount of saline. This solution was used as a brain extract. The 24-HC in the brain extract was extracted with an acetonitrile solution (98% acetonitrile, 1.98% methanol, 0.02% formic acid), and quantified by HPLC. The average value of 24-HC amount was calculated and the results are shown in relative values with the control group as 100%.

T1 sequence (Q9Y6A2 whole entry): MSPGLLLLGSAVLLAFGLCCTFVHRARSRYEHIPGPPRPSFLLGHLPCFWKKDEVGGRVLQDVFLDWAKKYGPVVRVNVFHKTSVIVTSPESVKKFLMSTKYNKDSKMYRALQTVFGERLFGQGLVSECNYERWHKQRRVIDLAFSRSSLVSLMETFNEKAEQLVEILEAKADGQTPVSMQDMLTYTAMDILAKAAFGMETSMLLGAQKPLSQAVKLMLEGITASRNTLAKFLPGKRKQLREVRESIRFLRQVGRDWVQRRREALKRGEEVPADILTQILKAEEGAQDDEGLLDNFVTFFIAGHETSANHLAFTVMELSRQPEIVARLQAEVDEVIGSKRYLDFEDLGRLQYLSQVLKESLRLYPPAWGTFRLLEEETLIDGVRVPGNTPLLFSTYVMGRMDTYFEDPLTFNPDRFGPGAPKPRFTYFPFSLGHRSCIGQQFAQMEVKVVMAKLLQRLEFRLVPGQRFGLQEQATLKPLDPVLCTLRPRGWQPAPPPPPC

Structure (SMILES) | inhibition at 1 µM (human CH24H) | Decreasing Rate in 10 mg/kg (%) (24-HC in the brain) | Decreasing Rate in 30 mg/kg (%) (24-HC in the brain)
O=C(Nc1cc(-c2cnco2)cc(C(F)(F)F)c1)c1cccc(Cl)c1 [Example 1, 3-chloro-N-(3-(1,3-oxazol-5-yl)-5-(trifluoromethyl)phenyl)benzamide] | 89% | – | –
CC(C)c1cc(NS(=O)(=O)c2cccc(Cl)c2)cc(-c2cnco2)c1 [Example 4, 3-chloro-N-(3-isopropyl-5-(1,3-oxazol-5-yl)phenyl)benzenesulfonamide] | 89% | – | –
O=C(Nc1cc(-c2cnco2)cc(C2CC2)c1)c1cccc(Cl)c1 [Example 5, 3-chloro-N-(3-cyclopropyl-5-(1,3-oxazol-5-yl)phenyl)benzamide] | 79% | – | –
O=C(Nc1cc(-c2cnco2)cc(C(F)F)c1)C1CC1 [Example 31, N-(3-(difluoromethyl)-5-(1,3-oxazol-5-yl)phenyl)cyclopropanecarboxamide] | 90% | – | –
O=C(C1CC1)N1CCc2c(-c3cnco3)cc(C(F)(F)F)cc21 [Example 36, cyclopropyl(4-(1,3-oxazol-5-yl)-6-(trifluoromethyl)-2,3-dihydro-1H-indol-1-yl)methanone] | 92% | 73% | –
O=C(C1CC1)N1CCCOc2c(-c3cnco3)cc(C(F)(F)F)cc21 [Example 53, cyclopropyl(9-(1,3-oxazol-5-yl)-7-(trifluoromethyl)-3,4-dihydro-1,5-benzoxazepin-5(2H)-yl)methanone] | 52% | – | –
O=C(Nc1cc(C(F)(F)F)cc(-c2cnco2)n1)C1CC1 [Example 61, N-(6-(1,3-oxazol-5-yl)-4-(trifluoromethyl)pyridin-2-yl)cyclopropanecarboxamide] | 88% | – | –
CC(C)C(=O)N1CCc2c(-c3cnco3)cc(C(F)(F)F)cc21 [Example 80, 2-methyl-1-(4-(1,3-oxazol-5-yl)-6-(trifluoromethyl)-2,3-dihydro-1H-indol-1-yl)propan-1-one] | 91% | – | –
O=C(C1CCOCC1)N1CCc2c(-c3cnco3)cc(C(F)(F)F)cc21 [Example 87, (4-(1,3-oxazol-5-yl)-6-(trifluoromethyl)-2,3-dihydro-1H-indol-1-yl)(tetrahydro-2H-pyran-4-yl)methanone] | 97% | – | 56%
OC1CCN(c2cc(C(F)(F)F)cc(-c3cnco3)n2)C1 (stereo not drawn) [Example 96, 1-(6-(1,3-oxazol-5-yl)-4-(trifluoromethyl)pyridin-2-yl)pyrrolidin-3-ol] | 91% | – | –
OC1CN(c2cc(-c3cnco3)cc(C(F)(F)F)c2)CCC1Cc1ccccc1 (stereo not drawn) [Example 100, 4-benzyl-1-(3-(1,3-oxazol-5-yl)-5-(trifluoromethyl)phenyl)piperidin-3-ol] | 97% | – | –
CC1(C)CCN(c2cc(-c3cnco3)cc(C(F)(F)F)c2)C1=O [Example 127, 3,3-dimethyl-1-(3-(1,3-oxazol-5-yl)-5-(trifluoromethyl)phenyl)pyrrolidin-2-one] | 91% | – | –
O=C(N1CCc2c(-c3cnco3)cc(C(F)(F)F)cc21)N1C[C@@H]2C[C@H]1CO2 [Example 128, (1S,4S)-2-oxa-5-azabicyclo[2.2.1]hept-5-yl(4-(1,3-oxazol-5-yl)-6-(trifluoromethyl)-2,3-dihydro-1H-indol-1-yl)methanone] | 97% | – | –

Continued, in another order:

inhibition at 1 µM (human CH24H) | Structure (SMILES) | Decreasing Rate in 10 mg/kg (%) (24-HC in the brain) | Decreasing Rate in 30 mg/kg (%) (24-HC in the brain)
83% | O=S(=O)(Nc1cc2c(c(-c3cnco3)c1)OCC2)c1cccc(Cl)c1 [Example 10, 3-chloro-N-(7-(1,3-oxazol-5-yl)-2,3-dihydro-1-benzofuran-5-yl)benzenesulfonamide] | – | –
89% | O=C(Nc1cc(-c2cnco2)cc(C(F)(F)F)c1)C1CC1 [Example 17, N-(3-(1,3-oxazol-5-yl)-5-(trifluoromethyl)phenyl) cyclopropanecarboxamide] | 80% | –
90% | O=C(Cn1ccnc1)Nc1cc(-c2cnco2)cc(C(F)(F)F)c1 [Example 43, 2-(1H-imidazol-1-yl)-N-(3-(1,3-oxazol-5-yl)-5-(trifluoromethyl)phenyl)acetamide] | – | –
92% | O=C(C1CC1)N1CCOc2c(-c3cnco3)cc(C(F)(F)F)cc21 [Example 54, cyclopropyl(8-(1,3-oxazol-5-yl)-6-(trifluoromethyl)-2,3-dihydro-4H-1,4-benzoxazin-4-yl)methanone] | – | –
88% | FC(F)(F)c1cc(NCc2ccccn2)cc(-c2cnco2)c1 [Example 56, 3-(1,3-oxazol-5-yl)-N-(pyridin-2-ylmethyl)-5-(trifluoromethyl)aniline] | – | –
84% | O=C(Nc1cc2c(c(-c3cnco3)c1)OCC2)C1CC1 [Example 58, N-(7-(1,3-oxazol-5-yl)-2,3-dihydro-1-benzofuran-5-yl)cyclopropanecarboxamide] | – | –
92% | O=C(N1CCOCC1)N1CCc2c(-c3cnco3)cc(C(F)(F)F)cc21 [Example 83, morpholin-4-yl(4-(1,3-oxazol-5-yl)-6-(trifluoromethyl)-2,3-dihydro-1H-indol-1-yl)methanone] | – | –
93% | FC1(F)CCN(c2cc(-c3cnco3)cc(C(F)(F)F)c2)CC1 [Example 89, 4,4-difluoro-1-(3-(1,3-oxazol-5-yl)-5-(trifluoromethyl)phenyl)piperidine] | – | –
89% | OC1(Cc2ccccc2)CCN(c2cc(-c3cnco3)cc(C(F)(F)F)c2)CC1 [Example 92, 4-benzyl-1-(3-(1,3-oxazol-5-yl)-5-(trifluoromethyl)phenyl)piperidin-4-ol] | – | –
96% | O[C@H]1CCN(c2cc(-c3cnco3)cc(C(F)(F)F)c2)C1 [Example 95, (3S)-1-(3-(1,3-oxazol-5-yl)-5-(trifluoromethyl)phenyl)pyrrolidin-3-ol] | – | 66%
91% | CC(=O)N1CCN(c2cc(-c3cnco3)cc(C(F)(F)F)c2)CC1 [Example 107, 1-(4-(3-(1,3-oxazol-5-yl)-5-(trifluoromethyl)phenyl)piperazin-1-yl)ethanone] | – | –
95% | CS(=O)(=O)NC1CCN(c2cc(-c3cnco3)cc(C(F)(F)F)c2)C1 (stereo not drawn) [Example 119, N-(1-(3-(1,3-oxazol-5-yl)-5-(trifluoromethyl)phenyl)pyrrolidin-3-yl)methanesulfonamide] | – | –
89% | CC1(C)CCN(c2cc(C(F)(F)F)cc(-c3cnco3)n2)C1=O [Example 134, 3,3-dimethyl-1-(6-(1,3-ozazol-5-yl)-4-(trifluoromethyl)pyridin-2-yl)pyrrolidin-2-one] | – | –
